The source of these data is US20230144023A1, “USE OF BUTYLPHTHALIDE AND DERIVATIVE THEREOF” (CSPC NBP PHARMACEUTICAL CO., LTD, priority 2020, published 2023).

The subject of data set [1] is MM.1S, Jeko-1, HT29, A549, DU145. In words: In vitro proliferation of 5 cell strains, summary statements (Example 7). Type of data set: cell-based, Human. The settings on record: Homo sapiens; range over MM.1S, Jeko-1, HT29, A549, DU145; combined therapy with 30 μM NBP. As for the experimental part: Different drug concentration gradients were set for each group.
Monotherapy group of NBP: NBP was 2× serially diluted from an initial concentration of 480 μM to 8 concentrations: 480, 240, 120, 60, 30, 15, 7.5, and 3.75 μM, respectively.
The action time of the drug was 72 h.
3 replicate wells were set for each concentration of each drug, and blank wells (only culture medium was present, and no tumor cells were inoculated) and normal wells (a culture medium inoculated with tumor cells, drug concentration was 0) were set.

The nature of data set [2]: PK of Bortezomib and butylphthalide in plasma of MM.1S tumor-bearing mice (Example 8). Type of data set: in vivo, Nu/Nu mice. As for the experimental part:
Monotherapy group of Bortezomib: administered by intraperitoneal injection at 0.5 mg/kg, biw (on days 0, 3, 7, 10, and 15);
Monotherapy group of NBP: administered by transoral gavage at 60 mg/kg, bid (the administration was commenced on day 0), and the second dose of NBP was administered with an interval from the first dose of ≥4 h;
Monotherapy group of Palbociclib: intragastric administration at 70 mg/kg, qd (the administration was commenced on day 0);
Combined therapy group of NBP/Bortezomib: the administration frequency and dose were the same as the frequency and dose of the monotherapy group of NBP and the monotherapy group of Bortezomib, respectively.
Combined therapy group of Bortezomib/Palbociclib: the administration frequency and dose were the same as the frequency and dose of the monotherapy group of Bortezomib and the monotherapy group of Palbociclib, respectively.
Combined therapy group of NBP/Bortezomib/Palbociclib: the administration frequency and dose were the same as the frequency and dose of the monotherapy group of NBP, the monotherapy group of Bortezomib, and the monotherapy group of Palbociclib, respectively.
Before administration of the last dose of Bortezomib (0 h), and 5 min, 15 min, 30 min, 1 h, 2 h, 4 h, 8 h, 24 h after the administration, blood was sampled (as detailed in Table 8) (except that blood was sampled from the mice in the solvent group only at 0 h), anticoagulated with heparin, and centrifuged to separate plasma, which was stored at −80° C. for later use. Bortezomib and butyphthalide in the plasma were determined by protein precipitation-LC/MS/MS.

Data set [3] deals with DU145.
Protocol: (§1) This experiment includes a monotherapy group of Bortezomib, a combined therapy group (Bortezomib/NBP), and a monotherapy group of NBP. Different drug concentration gradients were set for each group.
(§2) Monotherapy group of Bortezomib: (1) MM.1S, Jeko-1, and HT29 cells: Bortezomib was 1.5× serially diluted from an initial concentration of 20 nM to 8 concentrations: 20, 13.33, 8.89, 5.93, 3.95, 2.63, 1.76, and 1.17 nM, respectively; (2) A549 cells: Bortezomib was 2×serially diluted from an initial concentration of 200 nM to 8 concentrations: 200, 100, 50, 25, 12.5, 6.25, 3.13, and 1.56 nM, respectively; and (3) DU145 cells: Bortezomib was 2× serially diluted from an initial concentration of 100 nM to 8 concentrations: 100, 50, 25, 12.5, 6.25, 3.13, 1.56, and 0.78 nM, respectively.
(§3) A certain number of conventionally cultured cells in logarithmic growth phase were inoculated in a 96-well plate with 100 μL per well. […] For adherent cells HT29, A549, and DU145, the above drugs were added 24 h after adherence. 3 replicate wells were set for each concentration of each drug, and blank wells (only culture medium was present, and no tumor cells were inoculated) and normal wells (a culture medium inoculated with tumor cells, drug concentration was 0) were set. The drugs functioned for 72 h, then MTT working solution (5 mg/mL) was added at 20 μL per well; after functioning at 37° C. for 4 h, the supernatant was removed, 150 μL of DMSO (analytically pure) was added; the mixture was fully mixed using a microplate oscillator, the plate was wiped clean, and the optical density (OD) at 550 nm was measured using a microplate reader.
(§4) The cell growth inhibition rate was computed using the following equation:
(§5) Inhibition rate (%)=(OD valuenormal well−OD valueadministration well)/(OD valuenormal well−OD valueblank well)×100%
(§6) Based on the inhibition rate of each concentration, the median inhibitory concentration IC50 of the drug was computed using SPSS19.0.
For data set [4] the following is noted: cited from earlier work.
The subject of data set [5] is HT29.
Protocol: as §1, §2, §3, §4, §5, §6
Data set [6] deals with A549.
Protocol: as §1, §2, §3, §4, §5, §6
For data set [7], the system named is Jeko-1.
Protocol: as §1, §2, §3, §4, §5, §6
For data set [8], the system named is MM.1S xenograft tumor. Description: Influence of NBP on in vivo anti-tumor efficacy of Bortezomib, MM.1S xenograft (Example 8). Details: species or system Nu/Nu mice. As for the experimental part: After in vitro resuscitation and passage of MM.1S cells to a sufficient amount, the cells were counted by a microscope, and diluted with a serum-free medium to adjust the cell count to about 1×10^8 cells/mL. The cell suspension was kept in an ice-water bath. The MM.1S cell suspension was extracted by a sterile syringe and inoculated into the subcutaneous tissue of the forelimb axilla of the Nu/Nu mice. […] Monotherapy group of Palbociclib: intragastric administration at 70 mg/kg, qd (the administration was commenced on day 0); […] The solvent group was given the solvent at the same frequency and with the same administration method as Bortezomib and NBP. The administration period was 16 days, and the administration volume was 10 mL/kg. […] Animals were weighed at set time once per day after the commencement of administration. After animals were grouped, the long diameter and the short diameter of the tumor were measured twice every week. […] V=1⁄2×A×B^2 […] (4) Tumor growth inhibition rate: Note: V: tumor volume; A: tumor length; B: tumor width; RTV: relative tumor volume; TVnd: tumor volume on day n; TV0d: tumor volume on day 0; […]: mean relative tumor volume on day n; TVXn: mean tumor volume of the therapy group on day n; TVX0: mean tumor volume of the therapy group on day 0; TVMn: mean tumor volume of the solvent group on day n; and TVM0: mean tumor volume of the solvent group on day 0 At the end of the experiment, after the animals were euthanized by CO2 asphyxiation, the tumors were excised and weighed.

For data set [9], the system named is MM.1S.
Protocol: as §1, §2, §3, §4, §5, §6
The mark [10] stands for this setting: Bor 0.5 mg/kg i.p., Pal 70 mg/kg, NBP 60 mg/kg, mean ± SD, n=6.
The mark [11] stands for this setting: day 14, Bor 0.5 mg/kg, Pal 70 mg/kg, NBP 60 mg/kg, alone or combined.
Setting [12] is: day 14, Bor 0.5 mg/kg, Pal 70 mg/kg, NBP 60 mg/kg, alone or combined, mean, n=6.

Values joined by “and” are separate entries in the source; they are usually repeats but may differ in a detail not shown here. Equal entries are not always repeated.

Take `CC(C)C[C@H](NC(=O)[C@H](Cc1ccccc1)NC(=O)c1cnccn1)B(O)O` [Bortezomib]: the IC50 is 1 to 20 nM in [1]; 12.8 nM and 11.9 nM and 17.1 nM and 13.9 nM in data set [3]; 4.43 nM and 4.97 nM and 5.65 nM and 5.02 nM in [5]; 11.8 nM and 13.3 nM and 10.6 nM and 11.9 nM in data set [6]; 4.83 nM and 3.51 nM and 4.47 nM and 4.27 nM in data set [7]; 2.55 nM and 2.94 nM and 2.99 nM and 2.83 nM in [9]. Moreover, in data set [2] (setting [10]), the “CI of Bortezomib” value was determined as 30.2 ± 9.33 mL/min/kg. Also, in data set [2] (setting [10]), the “Vd of Bortezomib” value is 14.2 ± 3.2 L/kg. Besides, in data set [2] (Bortezomib 0.5 mg/kg), the “influence of Bortezomib on the pharmacokinetic behavior of NBP in mice” value is listed as “substantially did not affect”. The AUC(0-t) in data set [2] (Nu/Nu, mouse, plasma, ip, Bor 0.5 mg/kg i.p., Pal 70 mg/kg, NBP 60 mg/kg, mean ± SD, n=6, read-out: AUC0-t of Bortezomib in plasma) worked out at 290 ± 104 ng·h/mL. The MRT last in data set [2] (Nu/Nu, mouse, plasma, ip, Bor 0.5 mg/kg i.p., Pal 70 mg/kg, NBP 60 mg/kg, mean ± SD, n=6, read-out: MRT0-t of Bortezomib) amounted to 5.9 ± 0.8 h. Besides, the half-life in data set [2] (Nu/Nu, mouse, plasma, ip, Bor 0.5 mg/kg i.p., Pal 70 mg/kg, NBP 60 mg/kg, mean ± SD, n=6, read-out: t1/2 of Bortezomib in plasma (converted)) is 56.6 ± 1.16 h. The Cmax in [2] (Nu/Nu, mouse, plasma, ip, after last Bortezomib dose, Bor 0.5 mg/kg i.p., Pal 70 mg/kg, NBP 60 mg/kg, mean ± SD, n=6, read-out: Cmax of Bortezomib in plasma) is 113 ± 8 ng/mL. Moreover, in data set [4] (2-3 months after treatment), the “patients still having clinically significant neuropathy” value is recorded as 60-85%. Besides, the “additional patients with moderate to severe neurotoxicity” value in data set [4] (human, in vivo) is approximately 30%. For the same compound, in [4] (human, in vivo), the “patients with severe painful sensory neuropathy” value is 50%. Further, the T/C % in data set [8] (setting [11]) was 98.0%. Moreover, in [8] (setting [11]), the TGI % was determined as 8.7%. In addition, the RTV in data set [8] (setting [12]) is recorded as 9.6. For the same compound, the TV in [8] (setting [12]) was found to be 1124.8 mm^3. Further, in data set [8] (end of experiment, Bor 0.5 mg/kg, Pal 70 mg/kg, NBP 60 mg/kg, alone or combined), the “Tumor weight inhibition rate” value is 22.2%. The Tumor weight in [8] (end of experiment, Bor 0.5 mg/kg, Pal 70 mg/kg, NBP 60 mg/kg, alone or combined, mean, n=6, in g (unit assumed)) was 1.282. Further, the “body weights of the mice” value in data set [8] (mouse, in vivo) was “no significant difference”.
